Experimental data reported in ChEMBL document CHEMBL1148155, “Botryllamides E-H, four new tyrosine derivatives from the ascidian Botrylloides tyreum” (J Nat Prod, 2004).

Tested on: HCT-116
Assay: Cytotoxicity against human HCT116 cells after 72 hrs by MTS/PMS assay
Assay type: functional, cell-based
Conditions: HCT-116, 72 h

Compound | IC50 [µM]
CO/C(=C\c1ccc(O)cc1)C(=O)N/C=C/c1cc(Br)c(OC)c(Br)c1 [BOTRYLLAMIDE A] | 33
CO/C(=C\c1ccc(O)cc1)C(=O)N/C=C/c1ccc(OC)c(Br)c1 [BOTRYLLAMIDE C] | 28
CO/C(=C\c1ccc(O)cc1)C(=O)N/C=C/c1ccc(OC)cc1 [BOTRYLLAMIDE E] | 30
CO/C(=C\c1ccc(O)cc1)C(=O)N/C=C/c1ccc(O)cc1 [BOTRYLLAMIDE F] | 85
CO/C(=C\c1ccc(O)cc1)C(=O)N/C=C/c1cc(Br)c(O)c(Br)c1 [BOTRYLLAMIDE G] | 110
